# System: not listed separately
# Assay: Inhibition of DGAT-mediated oleic acid-induced [14C]neutral lipid synthesis in CHOK1 cells after 6 hrs using [14C]oleic acid by […]
# Type: cell-based
# Settings: Cricetulus griseus, CHO-K1, 6 h
row,Structure (SMILES),IC50
1,C=C1CCC[C@H]2[C@](C)(Cc3cc(OC(C)=O)ccc3OC(C)=O)[C@@H](C)CC[C@]12C,> 24.4 µM
2,CCC(=O)Oc1ccc(OC(=O)CC)c(C[C@]2(C)[C@@H](C)CC[C@]3(C)C(C)=CCC[C@@H]23)c1,13.5 µM
3,CC(=O)Oc1ccc(O)c(C[C@]2(C)[C@@H](C)CC[C@]3(C)C(C)=CCC[C@@H]23)c1,> 27.3 µM
4,C=C1CCC[C@H]2[C@](C)(Cc3cc(OC(=O)CC)ccc3OC(=O)CC)[C@@H](C)CC[C@]12C,> 22.8 µM
5,C=C1CCC[C@H]2[C@](C)(Cc3cc(O)ccc3O)[C@@H](C)CC[C@]12C,14.2 µM
6,CC(=O)Oc1ccc(OC(C)=O)c(C[C@]2(C)[C@@H](C)CC[C@]3(C)C(C)=CCC[C@@H]23)c1,23.5 µM
7,CC1=CCC[C@H]2[C@](C)(Cc3cc(O)ccc3O)[C@@H](C)CC[C@]12C [AVAROL],6.8 µM
8,CC1=CCC[C@H]2[C@](C)(CC3=CC(=O)C=C(N)C3=O)[C@@H](C)CC[C@]12C,27.5 µM
9,CC1=CCC[C@H]2[C@]3(C)Cc4cc(O)ccc4O[C@]3(C)CC[C@]12C,> 31.1 µM
10,C=C1CCC[C@H]2[C@](C)(Cc3cc(OC)ccc3O)[C@@H](C)CC[C@]12C,> 29.6 µM
11,CC(=O)Oc1ccc(O)cc1C[C@]1(C)[C@@H](C)CC[C@]2(C)C(C)=CCC[C@@H]12,> 27.3 µM
12,C=C1CCC[C@H]2[C@](C)(Cc3cc(OC(C)=O)ccc3O)[C@@H](C)CC[C@]12C,> 27.3 µM
13,COc1ccc(O)c(C[C@]2(C)[C@@H](C)CC[C@]3(C)C(C)=CCC[C@@H]23)c1,> 29.6 µM
14,C=C1CCC[C@H]2[C@](C)(Cc3cc(O)ccc3OC(C)=O)[C@@H](C)CC[C@]12C,> 27.3 µM

# System: not listed separately
# Assay: Inhibition of SOAT2 in CHO cell microsomal fraction using [1-14C]oleoyl-CoA as substrate measured after 5 mins by TLC based method
# Design: species or system Cricetulus griseus
# Settings: not given
row,Structure (SMILES),IC50
1,C=C1CCC[C@H]2[C@](C)(Cc3cc(O)ccc3O)[C@@H](C)CC[C@]12C,14 µM
2,CC1=CCC[C@H]2[C@](C)(Cc3cc(O)ccc3O)[C@@H](C)CC[C@]12C [AVAROL],8.1 µM

# System: not listed separately
# Assay: Inhibition of SOAT-mediated oleic acid-induced [14C]cholesterol ester accumulation in CHOK1 cells after 6 hrs using [14C]oleic acid by […]
# Type: cell-based
# Settings: Cricetulus griseus, CHO-K1, 6 h
row,Structure (SMILES),IC50
1,C=C1CCC[C@H]2[C@](C)(Cc3cc(OC(C)=O)ccc3OC(C)=O)[C@@H](C)CC[C@]12C,10.8 µM
2,CCC(=O)Oc1ccc(OC(=O)CC)c(C[C@]2(C)[C@@H](C)CC[C@]3(C)C(C)=CCC[C@@H]23)c1,16.7 µM
3,CC(=O)Oc1ccc(O)c(C[C@]2(C)[C@@H](C)CC[C@]3(C)C(C)=CCC[C@@H]23)c1,23.1 µM
4,C=C1CCC[C@H]2[C@](C)(Cc3cc(OC(=O)CC)ccc3OC(=O)CC)[C@@H](C)CC[C@]12C,11 µM
5,C=C1CCC[C@H]2[C@](C)(Cc3cc(O)ccc3O)[C@@H](C)CC[C@]12C,11 µM
6,CC(=O)Oc1ccc(OC(C)=O)c(C[C@]2(C)[C@@H](C)CC[C@]3(C)C(C)=CCC[C@@H]23)c1,16.5 µM
7,CC1=CCC[C@H]2[C@](C)(Cc3cc(O)ccc3O)[C@@H](C)CC[C@]12C [AVAROL],5.74 µM
8,CC1=CCC[C@H]2[C@](C)(CC3=CC(=O)C=C(N)C3=O)[C@@H](C)CC[C@]12C,13.2 µM
9,CC1=CCC[C@H]2[C@]3(C)Cc4cc(O)ccc4O[C@]3(C)CC[C@]12C,13.9 µM
10,C=C1CCC[C@H]2[C@](C)(Cc3cc(OC)ccc3O)[C@@H](C)CC[C@]12C,10.4 µM
11,CC(=O)Oc1ccc(O)cc1C[C@]1(C)[C@@H](C)CC[C@]2(C)C(C)=CCC[C@@H]12,13.7 µM
12,C=C1CCC[C@H]2[C@](C)(Cc3cc(OC(C)=O)ccc3O)[C@@H](C)CC[C@]12C,16 µM
13,COc1ccc(O)c(C[C@]2(C)[C@@H](C)CC[C@]3(C)C(C)=CCC[C@@H]23)c1,11.4 µM
14,C=C1CCC[C@H]2[C@](C)(Cc3cc(O)ccc3OC(C)=O)[C@@H](C)CC[C@]12C,11.9 µM

# System: not listed separately
# Assay: Inhibition of DGAT in CHOK1 cell microsomal fraction using [14C]palmitoyl-CoA as substrate measured after 15 mins TLC based method
# Design: species or system Cricetulus griseus
# Settings: not given
row,Structure (SMILES),IC50
1,C=C1CCC[C@H]2[C@](C)(Cc3cc(O)ccc3O)[C@@H](C)CC[C@]12C,44.3 µM
2,CC1=CCC[C@H]2[C@](C)(Cc3cc(O)ccc3O)[C@@H](C)CC[C@]12C [AVAROL],20 µM

# Target: T1, Sterol O-acyltransferase 1 (Cricetulus griseus, UniProt Q60457)
# T1 sequence (Q60457 whole entry): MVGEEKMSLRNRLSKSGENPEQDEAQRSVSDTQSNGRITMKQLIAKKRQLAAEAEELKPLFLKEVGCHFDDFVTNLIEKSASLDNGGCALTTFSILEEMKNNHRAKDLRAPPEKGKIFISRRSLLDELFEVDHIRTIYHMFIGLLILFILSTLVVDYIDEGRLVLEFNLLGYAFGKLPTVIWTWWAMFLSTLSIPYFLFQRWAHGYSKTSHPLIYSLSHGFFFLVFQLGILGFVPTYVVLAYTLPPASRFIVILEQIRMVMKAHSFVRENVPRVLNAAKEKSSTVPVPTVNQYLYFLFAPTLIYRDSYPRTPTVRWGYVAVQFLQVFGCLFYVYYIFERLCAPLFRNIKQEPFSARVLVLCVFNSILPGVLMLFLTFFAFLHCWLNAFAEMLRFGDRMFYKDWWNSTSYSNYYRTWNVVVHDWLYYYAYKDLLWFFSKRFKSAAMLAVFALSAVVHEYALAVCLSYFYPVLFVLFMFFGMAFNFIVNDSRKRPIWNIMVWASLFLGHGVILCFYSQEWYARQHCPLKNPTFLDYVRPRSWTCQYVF
# Assay: Inhibition of SOAT1 in CHO cell microsomal fraction using [1-14C]oleoyl-CoA as substrate measured after 5 mins by TLC based method
# Settings: not given
row,Structure (SMILES),IC50
1,C=C1CCC[C@H]2[C@](C)(Cc3cc(O)ccc3O)[C@@H](C)CC[C@]12C,32 µM
2,CC1=CCC[C@H]2[C@](C)(Cc3cc(O)ccc3O)[C@@H](C)CC[C@]12C [AVAROL],12 µM

# Target: T2, Sterol O-acyltransferase 1 (Chlorocebus aethiops, UniProt O77760)
# T2 sequence (O77760 whole entry): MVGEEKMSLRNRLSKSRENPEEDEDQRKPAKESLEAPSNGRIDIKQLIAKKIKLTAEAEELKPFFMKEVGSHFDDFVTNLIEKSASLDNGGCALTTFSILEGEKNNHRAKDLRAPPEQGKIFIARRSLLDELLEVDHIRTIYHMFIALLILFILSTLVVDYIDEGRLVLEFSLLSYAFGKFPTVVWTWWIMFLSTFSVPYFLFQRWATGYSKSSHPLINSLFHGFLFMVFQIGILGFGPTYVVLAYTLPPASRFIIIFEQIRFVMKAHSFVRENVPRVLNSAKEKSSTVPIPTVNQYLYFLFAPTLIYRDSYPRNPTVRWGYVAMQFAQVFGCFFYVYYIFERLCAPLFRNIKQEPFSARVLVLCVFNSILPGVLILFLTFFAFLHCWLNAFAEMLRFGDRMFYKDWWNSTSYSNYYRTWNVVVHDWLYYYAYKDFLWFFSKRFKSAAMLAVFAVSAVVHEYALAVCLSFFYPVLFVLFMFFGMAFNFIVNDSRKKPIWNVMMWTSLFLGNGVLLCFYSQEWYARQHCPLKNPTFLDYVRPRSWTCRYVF
# Assay: Inhibition of African green monkey SOAT1 expressed in CHO cells using [1-14C]oleic acid incubated for 6 hrs by TLC based method
# Type: cell-based
# Settings: not given
row,Structure (SMILES),IC50
1,C=C1CCC[C@H]2[C@](C)(Cc3cc(O)ccc3O)[C@@H](C)CC[C@]12C,19.2 µM
2,CC1=CCC[C@H]2[C@](C)(Cc3cc(O)ccc3O)[C@@H](C)CC[C@]12C [AVAROL],14.2 µM

# Target: T3, Sterol O-acyltransferase 2 (Chlorocebus aethiops, UniProt O77759)
# T3 sequence (O77759 whole entry): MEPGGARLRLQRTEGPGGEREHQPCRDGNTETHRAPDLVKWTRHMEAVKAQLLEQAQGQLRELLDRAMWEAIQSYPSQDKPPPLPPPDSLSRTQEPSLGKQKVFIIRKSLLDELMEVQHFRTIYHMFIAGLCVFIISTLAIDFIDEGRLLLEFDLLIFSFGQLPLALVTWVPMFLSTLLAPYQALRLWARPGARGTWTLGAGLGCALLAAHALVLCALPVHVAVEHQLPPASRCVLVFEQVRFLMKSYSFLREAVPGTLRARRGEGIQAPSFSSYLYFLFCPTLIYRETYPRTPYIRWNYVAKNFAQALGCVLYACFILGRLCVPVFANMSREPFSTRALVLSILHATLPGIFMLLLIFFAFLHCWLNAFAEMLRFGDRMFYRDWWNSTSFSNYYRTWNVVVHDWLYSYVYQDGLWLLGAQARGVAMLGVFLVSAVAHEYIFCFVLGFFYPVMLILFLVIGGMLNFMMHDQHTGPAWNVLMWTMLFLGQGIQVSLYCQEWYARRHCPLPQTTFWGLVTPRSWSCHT
# Assay: Inhibition of African green monkey SOAT2 expressed in CHO cells using [1-14C]oleic acid incubated for 6 hrs by TLC based method
# Type: cell-based
# Settings: not given
row,Structure (SMILES),IC50
1,C=C1CCC[C@H]2[C@](C)(Cc3cc(O)ccc3O)[C@@H](C)CC[C@]12C,19.1 µM
2,CC1=CCC[C@H]2[C@](C)(Cc3cc(O)ccc3O)[C@@H](C)CC[C@]12C [AVAROL],14.8 µM

# System: not listed separately
# Assay: Inhibition of SOAT in CHOK1 cell microsomal fraction using [1-14C]oleoyl-CoA as substrate measured after 5 mins by TLC based method
# Design: species or system Cricetulus griseus
# Settings: not given
row,Structure (SMILES),IC50
1,C=C1CCC[C@H]2[C@](C)(Cc3cc(O)ccc3O)[C@@H](C)CC[C@]12C,15.6 µM
2,CC1=CCC[C@H]2[C@](C)(Cc3cc(O)ccc3O)[C@@H](C)CC[C@]12C [AVAROL],7.31 µM

# System: CHO-K1
# Assay: Cytotoxicity against CHOK1 cells assessed as reduction in cell viability
# Type: cell-based
# Settings: Cricetulus griseus
row,Structure (SMILES),IC50
1,C=C1CCC[C@H]2[C@](C)(Cc3cc(OC(C)=O)ccc3OC(C)=O)[C@@H](C)CC[C@]12C,> 24.4 µM
2,CCC(=O)Oc1ccc(OC(=O)CC)c(C[C@]2(C)[C@@H](C)CC[C@]3(C)C(C)=CCC[C@@H]23)c1,> 22.8 µM
3,CC(=O)Oc1ccc(O)c(C[C@]2(C)[C@@H](C)CC[C@]3(C)C(C)=CCC[C@@H]23)c1,> 27.3 µM
4,C=C1CCC[C@H]2[C@](C)(Cc3cc(OC(=O)CC)ccc3OC(=O)CC)[C@@H](C)CC[C@]12C,> 22.8 µM
5,C=C1CCC[C@H]2[C@](C)(Cc3cc(O)ccc3O)[C@@H](C)CC[C@]12C,> 30.9 µM
6,CC(=O)Oc1ccc(OC(C)=O)c(C[C@]2(C)[C@@H](C)CC[C@]3(C)C(C)=CCC[C@@H]23)c1,> 24.4 µM
7,CC1=CCC[C@H]2[C@](C)(Cc3cc(O)ccc3O)[C@@H](C)CC[C@]12C [AVAROL],> 30.9 µM
8,CC1=CCC[C@H]2[C@](C)(CC3=CC(=O)C=C(N)C3=O)[C@@H](C)CC[C@]12C,> 30.9 µM
9,CC1=CCC[C@H]2[C@]3(C)Cc4cc(O)ccc4O[C@]3(C)CC[C@]12C,> 31.1 µM
10,C=C1CCC[C@H]2[C@](C)(Cc3cc(OC)ccc3O)[C@@H](C)CC[C@]12C,> 29.6 µM
11,CC(=O)Oc1ccc(O)cc1C[C@]1(C)[C@@H](C)CC[C@]2(C)C(C)=CCC[C@@H]12,> 27.3 µM
12,C=C1CCC[C@H]2[C@](C)(Cc3cc(OC(C)=O)ccc3O)[C@@H](C)CC[C@]12C,> 27.3 µM
13,COc1ccc(O)c(C[C@]2(C)[C@@H](C)CC[C@]3(C)C(C)=CCC[C@@H]23)c1,> 29.6 µM
14,C=C1CCC[C@H]2[C@](C)(Cc3cc(O)ccc3OC(C)=O)[C@@H](C)CC[C@]12C,> 27.3 µM

# — ChEMBL document CHEMBL4346732, “Inhibition of neutral lipid synthesis by avarols from a marine sponge” (Bioorg Med Chem Lett, 2019)
